Experimental findings from patent US8389743B2, “Histamine-3 receptor antagonists” (Pfizer Inc., priority 2005, dated 2013) are described below.

Structures can show the parent of a compound that is named as a salt.

T1 sequence (Q9QYN8 whole entry): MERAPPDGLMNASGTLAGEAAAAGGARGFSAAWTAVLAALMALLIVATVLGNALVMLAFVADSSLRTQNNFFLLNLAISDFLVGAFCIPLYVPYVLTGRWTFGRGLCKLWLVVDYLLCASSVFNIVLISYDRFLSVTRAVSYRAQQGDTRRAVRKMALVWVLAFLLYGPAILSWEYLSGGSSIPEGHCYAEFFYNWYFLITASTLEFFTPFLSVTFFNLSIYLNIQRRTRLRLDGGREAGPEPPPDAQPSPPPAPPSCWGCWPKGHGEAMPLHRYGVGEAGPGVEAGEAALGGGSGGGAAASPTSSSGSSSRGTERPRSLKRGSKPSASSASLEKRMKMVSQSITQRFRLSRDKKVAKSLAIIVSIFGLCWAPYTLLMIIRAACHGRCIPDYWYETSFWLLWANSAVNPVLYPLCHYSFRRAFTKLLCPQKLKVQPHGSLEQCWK

The test addresses T1, rat histamine H3 receptors (Rattus norvegicus, UniProt Q9QYN8).
T1 construct: Frozen rat frontal brain or frozen human post-mortem frontal brain is homogenized; from tissue; host or cells: rat frontal brain membranes
Description: Rat Histamine H3 Receptor Binding. Conditions: rat frontal brain membranes; radioligand 3H-N-methyl-histamine 1 nM; 1 hour incubation; read-out: rH3 Ki. The protocol: The in vitro affinity of the compounds in the present invention at the rat or human histamine H3 receptors can be determined according to the following procedure. Frozen rat frontal brain or frozen human post-mortem frontal brain is homogenized in 20 volumes of cold 50 mM Tris HCl containing 2 mM MgCl2 (pH to 7.4 at 4° C.). The homogenate is then centrifuged at 45,000 G for 10 minutes. The supernatant is decanted and the membrane pellet resuspended by Polytron in cold 50 mM Tris HCl containing 2 mM MgCl2 (pH to 7.4 at 4° C.) and centrifuged again. The final pellet is resuspended in 50 mM Tris HCl containing 2 mM MgCl2 (pH to 7.4 at 25° C.) at a concentration of 12 mg/mL. Dilutions of compounds are made in 10% DMSO/50 mM Tris buffer (pH 7.4) (at 10× final concentration, so that the final DMSO concentration is 1%). Incubations are initiated by the addition of membranes (200 microliters) to 96 well V-bottom polypropylene plates containing 25 microliters of drug dilutions and 25 microliters of radioligand (1 nM final concentration 3H—N-methyl-histamine). After a 1 hour incubation, assay samples are rapidly filtered through Whatman GF/B filters and rinsed with ice-cold 50 mM Tris buffer (pH 7.4) using a Skatron cell harvester. Radioactivity is quantified using a BetaPlate scintillation counter. The percent inhibition of specific binding can then be calculated.
Consider `CC(C)CNC(=O)C1CC(F)(c2cc(Cl)c(CN3CCCC3)cc2F)C1` (mixture of isomers) [Example 11, 3-(5-Chloro-2-fluoro-4-pyrrolidin-1-ylmethyl-phenyl)-3-fluoro-cyclobutanecarboxylic acid isobutyl-amide], for which the Ki (usually the equilibrium dissociation constant of an inhibitor or competing ligand from its target) was 0.0241 µM.

For `CN(CC1CC1)C(=O)C1CC(F)(c2ccc(CN3CCCC3)c(Cl)c2)C1` (mixture of isomers) [Example 50, 3-(3-Chloro-4-pyrrolidin-1-ylmethyl-phenyl)-3-fluoro-cyclobutanecarboxylic acid cyclopropylmethyl-methyl-amide], the Ki was 0.0323 µM.

With `CC(C)CNC(=O)C1CC(F)(c2ccc(CN3CCCC3)c(F)c2)C1` (single isomer, unassigned) [Example 55, 3-Fluoro-3-(3-fluoro-4-pyrrolidin-1-ylmethyl-phenyl)-cyclobutanecarboxylic acid isobutyl-amide], the Ki came to 0.0101 µM.

Turning to `O=C(C1CC(F)(c2ccc(CN3CCCC3)c(F)c2)C1)N1CCCC1` (stereo not drawn) [Example 9, N-{2-fluoro-4-[1-fluoro-3-(pyrrolidin-1-ylcarbonyl)cyclobutyl]benzyl}-pyrrolidine hydrochloride], the Ki was 0.0189 µM.

For the molecule `CCNC(=O)C1CC(c2ccc(CN3CCCC3)c(F)c2)C1` (stereo not drawn) [Example 13, 3-(3-Fluoro-4-pyrrolidin-1-ylmethyl-phenyl)-cyclobutanecarboxylic acid ethylamide], the Ki turned out to be 0.0101 µM.

Consider `CCNC(=O)C1CC(F)(c2ccc(CN3CCCC3)c(F)c2)C1` (stereo not drawn) [Example 16, 3-Fluoro-3-(3-fluoro-4-pyrrolidin-1-ylmethyl-phenyl)-cyclobutanecarboxylic acid ethylamide], for which the Ki was found to be 0.0207 µM.

With `CCN(C)C(=O)C1CC(F)(c2ccc(CN3CCCC3)c(F)c2)C1` (stereo not drawn) [Example 23, 3-Fluoro-3-(3-fluoro-4-pyrrolidin-1-ylmethyl-phenyl)-cyclobutanecarboxylic acid ethyl-methyl-amide], the Ki was found to be 0.0288 µM.

Turning to `O=C(NCC1CC1)C1CC(F)(c2ccc(CN3CCCC3)c(Cl)c2)C1` (stereo not drawn) [Example 46, 3-(3-Chloro-4-pyrrolidin-1-ylmethyl-phenyl)-3-fluoro-cyclobutanecarboxylic acid cyclopropylmethyl-amide], the Ki was 0.0109 µM.

As for `CCNC(=O)C1CC(F)(c2ccc(CN3CCC[C@@H]3C)c(F)c2)C1` (stereo partly drawn) [Example 59, 3-Fluoro-3-[3-fluoro-4-((S)-2-methyl-pyrrolidin-1-ylmethyl)-phenyl]-cyclobutanecarboxylic acid ethylamide], the Ki came to 0.0214 µM.
